In this test the target is T1, human NaV1.6 (hNaV1.6) (Homo sapiens, UniProt Q9UQD0).
T1 construct: expressed in transfected cells; host or cells: HEK-293 (G418 selection)
Nature of the test: Modulation of late (persistent) sodium current (INaL), PatchXpress electrophysiology, HEK-293 cells expressing hNaV1.6, ATX-II evoked. It counts as cell-based. The settings on record: 1 μM compound, HEK-293 cells expressing recombinant human NaV1.6, late current evoked by 300 nM ATX-II, steady-state inhibition; for inhibition at 1 µM: HEK293. As for the experimental part: Functional characterization of exemplary compounds to modulate INaL expressed by the NaV16 voltage-gated sodium channel was accomplished using the PatchXpress™ high throughput electrophysiology platform (Molecular Devices, Sunnyvale, Calif.). HEK-293 cells expressing recombinant, human NaV1.6 (hNaV1.6) were grown in DMEM/high-glucose Dulbecco's modified, 10% FBS, 2 mM sodium pyruvate, 10 mM HEPES and 400 μg/mL G418. Cells were grown to 50%-80% confluency prior to harvesting. Trypsinized cells were washed, allowed to recover for 1 hour and then resuspended in extracellular recording solution at a concentration of 1×10^6 cells/ml. The onboard liquid handling facility of the PatchXpress was used for dispensing cells and applying test compounds. NaV late currents were evoked by the application of 300 nM ATX-II. INaL was evoked by depolarizing pulses to 0 mV for 200 ms from a non-inactivating holding potential (e.g., −120 mV) at a frequency of 0.1 Hz. INaL amplitude and stability were determined by analyzing the mean current amplitude over the final 20 ms of the test pulse. Following steady state block with exemplary compounds (e.g., as described herein), a Na^+ free solution containing an impermeant cation (e.g., Choline or NDMG) was added to confirm the identify of the sodium current. Percent steady-state inhibition of INaL was calculated as: [(INaL_compound)/(INaL_control)]*100, where INaL_compound and INaL_control represent INaL recorded in the presence or absence of compound, respectively.
In this table, “A” indicates inhibition of less than 30%; “B” indicates inhibition of between about 30% to about 70%; and “C” indicates inhibition of greater than 70%.

Where only a bound is given, the exact number is not on record here.

T1 sequence (Q9UQD0 whole entry): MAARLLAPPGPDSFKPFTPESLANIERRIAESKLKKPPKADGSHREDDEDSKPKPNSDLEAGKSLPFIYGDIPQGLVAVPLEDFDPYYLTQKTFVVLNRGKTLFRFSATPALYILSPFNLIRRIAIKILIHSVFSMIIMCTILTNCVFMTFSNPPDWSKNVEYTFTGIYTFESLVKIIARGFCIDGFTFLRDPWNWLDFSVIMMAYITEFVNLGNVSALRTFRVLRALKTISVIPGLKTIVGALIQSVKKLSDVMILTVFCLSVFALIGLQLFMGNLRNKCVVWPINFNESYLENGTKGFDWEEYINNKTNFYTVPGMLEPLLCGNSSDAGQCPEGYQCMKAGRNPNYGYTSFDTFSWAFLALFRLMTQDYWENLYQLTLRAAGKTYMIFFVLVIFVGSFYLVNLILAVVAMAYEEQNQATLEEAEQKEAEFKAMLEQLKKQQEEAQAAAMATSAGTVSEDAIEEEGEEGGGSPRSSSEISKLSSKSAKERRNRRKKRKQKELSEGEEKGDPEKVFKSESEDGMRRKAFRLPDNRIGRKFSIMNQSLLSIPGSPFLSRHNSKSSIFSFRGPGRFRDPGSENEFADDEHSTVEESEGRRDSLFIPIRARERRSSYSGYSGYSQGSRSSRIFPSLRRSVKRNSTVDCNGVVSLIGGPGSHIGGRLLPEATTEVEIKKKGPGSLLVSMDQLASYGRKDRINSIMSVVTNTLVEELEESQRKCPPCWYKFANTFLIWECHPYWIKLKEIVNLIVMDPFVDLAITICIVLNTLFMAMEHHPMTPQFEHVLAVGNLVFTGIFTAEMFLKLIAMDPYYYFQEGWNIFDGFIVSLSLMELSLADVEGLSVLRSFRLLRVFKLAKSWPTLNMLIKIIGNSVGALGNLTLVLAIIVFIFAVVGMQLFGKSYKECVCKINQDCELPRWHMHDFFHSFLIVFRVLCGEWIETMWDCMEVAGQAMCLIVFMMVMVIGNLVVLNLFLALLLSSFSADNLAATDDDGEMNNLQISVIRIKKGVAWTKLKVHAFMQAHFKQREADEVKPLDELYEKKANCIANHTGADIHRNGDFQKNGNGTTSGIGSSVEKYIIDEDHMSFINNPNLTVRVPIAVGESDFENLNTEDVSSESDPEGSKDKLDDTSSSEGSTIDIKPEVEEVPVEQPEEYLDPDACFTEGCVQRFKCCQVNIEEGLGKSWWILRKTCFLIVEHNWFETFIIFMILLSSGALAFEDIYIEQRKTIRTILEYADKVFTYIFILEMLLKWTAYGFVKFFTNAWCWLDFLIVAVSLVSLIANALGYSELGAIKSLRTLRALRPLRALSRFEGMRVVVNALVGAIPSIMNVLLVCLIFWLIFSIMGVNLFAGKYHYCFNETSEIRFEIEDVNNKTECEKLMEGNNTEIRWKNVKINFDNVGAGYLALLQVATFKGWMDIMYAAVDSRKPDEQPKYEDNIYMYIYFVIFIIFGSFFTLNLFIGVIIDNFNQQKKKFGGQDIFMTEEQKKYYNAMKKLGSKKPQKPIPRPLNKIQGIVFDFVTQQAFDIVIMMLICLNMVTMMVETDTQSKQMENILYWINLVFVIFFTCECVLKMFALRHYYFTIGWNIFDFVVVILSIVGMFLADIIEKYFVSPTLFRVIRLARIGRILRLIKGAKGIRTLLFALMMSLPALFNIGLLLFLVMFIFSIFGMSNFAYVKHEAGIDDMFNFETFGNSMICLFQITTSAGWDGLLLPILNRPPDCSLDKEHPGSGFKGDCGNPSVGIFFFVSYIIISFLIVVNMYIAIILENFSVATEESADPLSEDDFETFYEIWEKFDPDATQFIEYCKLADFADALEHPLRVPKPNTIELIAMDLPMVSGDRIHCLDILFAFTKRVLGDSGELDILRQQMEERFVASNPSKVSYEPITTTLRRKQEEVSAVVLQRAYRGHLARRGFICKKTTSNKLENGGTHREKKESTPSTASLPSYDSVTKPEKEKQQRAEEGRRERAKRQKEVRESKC

By inhibition is commonly meant the share of the control response that was lost under treatment. Consider `FC(F)(F)Cn1nnc2ccc(-c3ccc(OC(F)(F)F)cc3)nc21` [Compound 1], for which the inhibition at 1 µM fell in the range of 30 to 70%. On the same count and under the same terms, for `FC(F)(F)Cn1nnc2ccc(-c3ccc(OC(F)(F)F)cc3)cc21` [Compound 2] the value was over 70%. As to `COCc1cc(OC(F)(F)F)ccc1-c1ccc2nnn(CC(F)(F)F)c2c1` [Compound 4], the inhibition at 1 µM lay within 30 to 70%. For the molecule `N#CC1(c2ccc(-c3ccc4nnn(CC(F)(F)F)c4c3)cc2)CC1` [Compound 5], the inhibition at 1 µM is under 30%. Consider `CCn1nnc2ccc(-c3ccc(OC(F)(F)F)cc3)cc21` [Compound 6], for which the inhibition at 1 µM is 30 to 70%. On the same count and under the same terms, the value for `FC(F)(F)Oc1ccc(-c2ccc3nn[nH]c3c2)cc1` [Compound 7] was under 30%.

`Cn1nnc2ccc(-c3ccc(OC(F)(F)F)cc3)cc21` [Compound 8]: the “INaL hNaV1.6 (1 μM, % inhibition)” value is given as “B (inhibition of between about 30% to about 70%)”. As for `Cc1nnc(CCn2nnc3ccc(-c4ccc(OC(F)(F)F)cc4)nc32)o1` [Compound 9], the inhibition at 1 µM was 30 to 70%.

For the molecule `FC(F)(F)Cn1nnc2ccc(-c3ccc(OC4CC(F)(F)C4)nc3)cc21` [Compound 10], the “INaL hNaV1.6 (1 μM, % inhibition)” value is recorded as “A (inhibition of less than 30%)”. Same read-out and setting: the value for `COc1cc(OC(F)(F)F)ccc1-c1ccc2nnn(CC(F)(F)F)c2c1` [Compound 11] was “A (inhibition of less than 30%)”; that for `FC(F)(F)COc1ccc(-c2ccc3nnn(CC(F)(F)F)c3c2)cn1` [Compound 12] was “B (inhibition of between about 30% to about 70%)”. Consider `FC(F)Cn1nnc2ccc(-c3ccc(OC(F)(F)F)cc3)cc21` [Compound 13], for which the inhibition at 1 µM was under 30%. `FC(F)(F)Cn1nnc2ccc(-c3ccc(OC4CC(F)(F)C4)cc3)cc21` [Compound 14]: the “INaL hNaV1.6 (1 μM, % inhibition)” value was “B (inhibition of between about 30% to about 70%)”. On to `Cc1nnc(CCn2nnc3ccc(-c4ccc(OC(F)(F)F)cc4)cc32)o1` [Compound 15], for which the “INaL hNaV1.6 (1 μM, % inhibition)” value is reported as “B (inhibition of between about 30% to about 70%)”.

Turning to `COCCn1nnc2ccc(-c3ccc(OC(F)(F)F)cc3)cc21` [Compound 16], the inhibition at 1 µM fell in the range of 30 to 70%.

Regarding `COc1cc(OC(F)(F)F)ccc1-c1ccc2nnn(CC(F)(F)F)c2n1` [Compound 17], the “INaL hNaV1.6 (1 μM, % inhibition)” value is “C (inhibition of greater than 70%)”. As to `COCc1cc(OC(F)(F)F)ccc1-c1ccc2nnn(CC(F)(F)F)c2n1` [Compound 18], the “INaL hNaV1.6 (1 μM, % inhibition)” value is “C (inhibition of greater than 70%)”. As to `FC(F)(F)Cn1nnc2cnc(-c3ccc(OC(F)(F)F)cc3)nc21` [Compound 19], the inhibition at 1 µM was under 30%. As to `FC(F)(F)Cn1nnc2cnc(-c3ccc(OC(F)(F)F)cc3)cc21` [Compound 20], the “INaL hNaV1.6 (1 μM, % inhibition)” value is listed as “A (inhibition of less than 30%)”. For `FC(F)(F)Cn1nnc2ncc(-c3ccc(OC(F)(F)F)cc3)cc21` [Compound 21], the inhibition at 1 µM was under 30%.

Source of the values: patent publication US11731966B2, “Compounds and their methods of use” (Praxis Precision Medicines, Inc., priority 2017, dated 2023).
